In patent US20140350081A1, “INSECT G-COUPLED RECEPTORS USEFUL AS TARGETS FOR INSECTICIDES AND COMPOUNDS AND REAGENTS IDENTIFIED USING THE SAME” (priority 2011, published 2014):
Read-outs that look alike come from different tables or passages of the source.

Tests used:
[1] = biological target: AaDOP1 (Aedes aegypti, UniProt H6D5H1); assay: CRELuc reporter dose-response in HEK293 cells stably expressing AaDOP1; format: cell-based; settings: HEK293 cells stably expressing CRELuc reporter and AaDOP1
AaDOP1, sequence (H6D5H1 entry or part of it): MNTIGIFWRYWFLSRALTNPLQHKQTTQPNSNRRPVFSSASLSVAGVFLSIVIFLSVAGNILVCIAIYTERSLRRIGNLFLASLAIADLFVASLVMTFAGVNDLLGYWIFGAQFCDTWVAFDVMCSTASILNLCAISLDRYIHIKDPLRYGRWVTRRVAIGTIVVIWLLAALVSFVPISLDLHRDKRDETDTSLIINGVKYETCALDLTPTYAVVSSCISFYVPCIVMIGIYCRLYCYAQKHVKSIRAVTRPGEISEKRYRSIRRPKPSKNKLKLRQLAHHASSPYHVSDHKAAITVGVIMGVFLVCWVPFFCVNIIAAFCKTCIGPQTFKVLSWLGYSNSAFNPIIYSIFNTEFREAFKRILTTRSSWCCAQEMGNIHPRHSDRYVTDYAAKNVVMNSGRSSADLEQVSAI

[2] = biological target: T1, AaDOP2 (Aedes aegypti, UniProt H6D5H2); assay: CRELuc reporter dose-response in HEK293 cells stably expressing AaDOP2; format: cell-based
T1 sequence (H6D5H2 entry or part of it): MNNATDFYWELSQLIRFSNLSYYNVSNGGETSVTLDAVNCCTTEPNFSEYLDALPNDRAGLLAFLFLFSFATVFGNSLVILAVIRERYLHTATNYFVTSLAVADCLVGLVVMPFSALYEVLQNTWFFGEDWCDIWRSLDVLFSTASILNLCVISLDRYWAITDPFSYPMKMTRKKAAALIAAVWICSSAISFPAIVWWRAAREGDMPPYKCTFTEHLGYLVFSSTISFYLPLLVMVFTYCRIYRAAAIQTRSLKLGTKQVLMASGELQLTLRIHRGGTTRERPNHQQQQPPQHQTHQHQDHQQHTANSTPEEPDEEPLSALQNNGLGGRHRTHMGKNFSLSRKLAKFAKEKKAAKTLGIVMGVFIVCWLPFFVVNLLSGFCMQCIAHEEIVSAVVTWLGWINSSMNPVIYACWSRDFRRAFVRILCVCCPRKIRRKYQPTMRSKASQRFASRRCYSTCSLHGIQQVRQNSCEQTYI

[3] = biological target: T2, Isdop1 (Ixodes scapularis, UniProt A0ACM8FJJ0); assay: cAMP accumulation in HEK 293 cells transiently expressing Isdop1; format: cell-based; settings: for Stimulatory response (fold-over-basal) Isdop1: 10 μM biogenic amine, 300 nM propranolol, cAMP accumulation, mean±standard error
[4] = biological target: T3, Isdop2 (Ixodes scapularis, UniProt A0ACM8DGL0); assay: cAMP accumulation in HEK 293 cells transiently expressing Isdop2; format: cell-based; settings: for Stimulatory response (fold-over-basal) Isdop2: 10 μM biogenic amine, 300 nM propranolol, cAMP accumulation, mean±standard error
T3 sequence (A0ACM8DGL0 entry or part of it): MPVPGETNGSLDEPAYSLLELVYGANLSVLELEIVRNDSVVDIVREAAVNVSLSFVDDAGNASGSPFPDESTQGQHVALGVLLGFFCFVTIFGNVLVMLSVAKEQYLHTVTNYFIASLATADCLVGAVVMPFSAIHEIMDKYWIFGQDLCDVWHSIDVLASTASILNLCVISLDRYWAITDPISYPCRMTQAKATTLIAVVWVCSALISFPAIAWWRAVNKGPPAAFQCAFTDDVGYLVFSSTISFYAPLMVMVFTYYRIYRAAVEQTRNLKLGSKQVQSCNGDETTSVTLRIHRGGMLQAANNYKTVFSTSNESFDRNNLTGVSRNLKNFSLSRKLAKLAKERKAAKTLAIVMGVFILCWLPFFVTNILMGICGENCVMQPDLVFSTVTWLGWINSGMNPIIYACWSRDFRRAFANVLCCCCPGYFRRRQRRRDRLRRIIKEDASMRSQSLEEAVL

[5] = biological target: T2, Isdop1; assay: CRE-Luc reporter assay, HEK cells stably expressing Isdop1; format: cell-based
[6] = biological target: T3, Isdop2; assay: CRE-Luc reporter assay, HEK cells stably expressing Isdop2; format: cell-based
[7] = biological target: T1, AaDOP2; assay: AaDOP2 agonist screen against the LOPAC1280 library; format: cell-based; settings: 10 μM compound; percent of response to 1 μM dihydrexidine
[8] = biological target: T1, AaDOP2; assay: HTRF cAMP accumulation concentration response assay (Cisbio Dynamic 2); format: cell-based; settings: AaDOP2 expressing cells in the presence of dopamine; No Inhibition = <10% inhibition at 3 μM test compound; read-out: IC50 ± S.E.M. (nM), HTRF cAMP assay
[9] = test system: Ae. aegypti L3 larvae; assay: Ae. aegypti L3 concentration response and time course assays; format: in vivo, Aedes aegypti
Experimental: Briefly, chemistries were diluted to appropriate concentration in water and added to the wells of 24-well plates containing 5 L3 stage Ae. aegypti larvae to achieve a final concentration of 400, 200, 100, 50 and 25 μM in 1 ml sterile RO water. Chemistries were tested in quadruplicate at each concentration. […] Results reported here represent a minimum of three independent CRC experiments (i.e., n=3).

[10] = test system: adult male Blatella germanica; assay: Cockroach contact assay (topical application); format: in vivo; settings: 200 mM compound
From the text: (§1) A series of whole organism bioassays was developed to further evaluate the toxicity of chemistries to a range of agricultural, veterinary and public health pests and non-target insects (Tables 12 and 13). These assays are designed to rapidly explore the biological activity spectrum of chemistries as well as to facilitate initial investigations of the mode of action of insecticidal compounds. Briefly, assays were developed for the German cockroach (Blatella germanica, urban pest), termite (Reticulitermes flavipes; urban pest), lone star tick (Amblyomma americana; veterinary and public health pest), soybean aphid (Aphis glycines, agricultural pest) and honeybee (Apis mellifera; beneficial, non-target insect). The assays were designed to test the toxicity and speed of kill of multiple chemistries on contact. Each of these assays was performed as a single point dose experiment in triplicate using either topical application of compound to the ventral thorax ([…]; 50-80 μg effective dose depending on compound) as is the case for our cockroach and honeybee assays, or 10 second immersion in a solution of the compound diluted in water or DMSO:EtOH to a final concentration of 100 μM. The assays were conducted in 24-well plate format with mortality assessment following incubation at 22° C. as described above. Commercial insecticides were incorporated in these assays to provide a positive control and permit initial comparative analyses. Lead chemistries identified in our in vivo screen have been evaluated in the cockroach and termite assays.

[11] = test system: adult male Blatella germanica; assay: Cockroach assay of Table 16 (title contact assay, text feeding assay); format: in vivo; settings: 200 mM compound
From the text: as §1

[12] = biological target: T3, Isdop2; assay: cell-based; settings: read-out: % Inhibition (of response to dopamine), Isdop2 screen
[13] = test system: Ae. aegypti L3 larvae; settings: 400 μM, three independent experiments
[14] = test system: Ae. aegypti L3 larvae; assay: whole plant or invertebrate; settings: Aedes aegypti
[15] = 10 μM agonist, transient expression

NCC(O)c1ccc(O)cc1 (racemic) [Octopamine]
EC50 ([1]; ≧10 μM = lacks intrinsic activity): ≥ 10 µM
EC50 [2]: ≥ 10 µM
Stimulatory response (fold-over-basal) Isdop1 [3]: 1.01 ± 0.07 fold-over-basal
Stimulatory response (fold-over-basal) Isdop2 [4]: 1.20 ± 0.24 fold-over-basal

CNC[C@H](O)c1ccc(O)c(O)c1 [Epinephrine]
behaviour at the AaDOP2 receptor in follow up CRCs ([2]; HEK 293-CRELuc cells, FIG. 21A): partial agonists
EC50 [5]: 1.9 ± 0.3 µM
EC50 [6]: 3.5 ± 1 µM
% of DHX [7]: 90%

NCCc1ccc(O)cc1 [Tyramine]
Stimulatory response (fold-over-basal) Isdop1 [3]: 1.34 ± 0.11 fold-over-basal
Stimulatory response (fold-over-basal) Isdop2 [4]: 1.27 ± 0.22 fold-over-basal

NCCc1c[nH]cn1 [Histamine]
Stimulatory response (fold-over-basal) Isdop1 [3]: 1.02 ± 0.10 fold-over-basal
Stimulatory response (fold-over-basal) Isdop2 [4]: 1.55 ± 0.28 fold-over-basal

CN(C)CCCN1c2ccccc2Sc2ccc(Cl)cc21 [Chlorpromazine]
IC50 [8]: 17 nM
LT50 ([9]; 400 μM, L3 larval time course assay): 178 min
LC50 ([9]; Aedes aegypti): 92 µM
% Mortality 24 hrs [10]: 3%
% Mortality 48 hrs [10]: 10%
% Mortality 72 hrs [10]: 10%
% Mortality 120 hrs [10]: 14%
% Mortality 240 hrs [10]: 17%
% Mortality 24 hrs [11]: 7%
% Mortality 48 hrs [11]: 17%
% Mortality 72 hrs [11]: 17%
% Mortality 120 hrs [11]: 20%
inhibition at 10 µM [12]: 92%
Toxicity to Aedes aegypti larvae (mortality) 24 hours [13]: 100%
mortality at 400 µM ([14]; 0.5 h, read-out: mortality of the mosquito population within 30 minutes, 400 μM, L3 larvae): > 70%
mortality at 400 µM ([14]; 0.5 h, read-out: percent mortality 0.5 hr, 400 uM, L3 larvae, value for this scoring time): 70%
mortality at 400 µM ([14]; 1 h, read-out: percent mortality 1 hr, 400 uM, L3 larvae, per scoring time): 0%
mortality at 400 µM ([14]; 2 h, read-out: percent mortality 2 hr, 400 uM, L3 larvae, per scoring time): 10%
mortality at 400 µM ([14]; 3 h, read-out: percent mortality 3 hr, 400 uM, L3 larvae, per scoring time): 0%
mortality at 400 µM ([14]; 4 h, read-out: percent mortality 4 hr, 400 uM, L3 larvae, per scoring time): 0%
mortality at 400 µM ([14]; 24 h, read-out: percent mortality 24 hr, 400 uM, L3 larvae, per scoring time): 10%
mortality at 400 µM ([14]; 48 h, read-out: Toxicity to Aedes aegypti larvae (mortality) 48 hours, 400 μM, L3 larvae, three independent experiments): 100%
mortality at 400 µM ([14]; 48 h, read-out: percent mortality 48 hr, 400 uM, L3 larvae, per scoring time): 0%
mortality at 400 µM ([14]; 72 h, read-out: Cumulative % Mortality (72 hrs), 400 uM, L3 larvae): 100%
mortality at 400 µM ([14]; 72 h, read-out: Toxicity to Aedes aegypti larvae (mortality) 72 hours, 400 μM, L3 larvae, three independent experiments): 100%
mortality at 400 µM ([14]; 72 h, read-out: percent mortality 72 hr, 400 uM, L3 larvae, per scoring time): 0%

Oc1cc2c(cc1O)C(c1ccccc1)CNCC2 (stereo not shown) [SKF 38393]
EC50 [1]: 0.31 ± 0.046 µM
EC50 ([2]; HEK293 cells stably expressing CRELuc reporter and AaDOP2, ≧10 μM = lacks intrinsic activity, read-out: EC50 values AaDOP2): ≥ 10 µM
intracellular cAMP compared to basal, Isdop1 [3, 15]: modest, yet significant increases
increase in cAMP, Isdop2 [4, 15]: ca. two-fold-over-basal
% of DHX [7]: < 10%
